Test results: patent publication US20050245399A1, “Pyrazole derivatives as herbicidal compositions containing them” (ISHIHARA SANGYO KAISHA, LTD., priority 2004, published 2005)

Key:
Format in all cases: in vivo
[1] = system: corn (Zea mays L.): ZEAMX; assay: Test Example 1 pre-emergence herbicidal activity, ZEAMX; details: visually observed 20th to 23rd day after application
Outline: (§1)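 Visual scoring 20–23 days after treatment gives percent growth control, where 0 equals untreated and 100 means complete kill. Treatment: pre-emergence spray of formulated compound in 500 L/ha water, one day after sowing in upland soil.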

[2] = system: velvetleaf (Abutilon theophrasti), ABUTH; assay: Test Example 2 post-emergence (foliage treatment) herbicidal activity, ABUTH; details: 63 g a.i./ha
Outline: (§2)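 A small sprayer delivered the diluted WP or EC formulation (500 L/ha water, 0.1% v/v spreader) over emerged seedlings in upland soil pots. Damage relative to untreated plants was graded visually from 0 to 100% three weeks or so later (days 20-23).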

[3] = system: rice (Oryza sativa L.): ORYSA; assay: Test Example 1 pre-emergence herbicidal activity, ORYSA; details: visually observed 20th to 23rd day after application
Outline: as §1

[4] = system: prickly sida (Sida spinosa L.): SEDSP; assay: Test Example 1 pre-emergence herbicidal activity, SIDSP; details: visually observed 20th to 23rd day after application
Outline: as §1

[5] = system: soybean (Glycine max Merr.): GLXMA; assay: Test Example 1 pre-emergence herbicidal activity, GLXMA; details: visually observed 20th to 23rd day after application
Outline: as §1

[6] = system: crabgrass (Digitaria sanguinalis L.): DIGSA; assay: Test Example 1 pre-emergence herbicidal activity, DIGSA; details: visually observed 20th to 23rd day after application
Outline: as §1

[7] = system: rice (Oryza sativa L.), ORYSA; assay: Test Example 2 post-emergence (foliage treatment) herbicidal activity, ORYSA; details: 63 g a.i./ha
Outline: (§3)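 Foliar spray of formulated compound (500 L/ha dilution water, 0.1% v/v spreader) onto young potted plants at defined leaf stages. Scored 0-100% by visual inspection 20-23 d post-spray.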

[8] = system: barnyardgrass (Echinochloa crus-galli L.): ECHCG; assay: Test Example 1 pre-emergence herbicidal activity, ECHCG; details: visually observed 20th to 23rd day after application
Outline: as §1

[9] = system: velvetleaf (Abutilon theophrasti): ABUTH; assay: Test Example 1 pre-emergence herbicidal activity, ABUTH; details: visually observed 20th to 23rd day after application
Outline: as §1

[10] = system: green foxtail (Setaria viridis L.): SETVI; assay: Test Example 1 pre-emergence herbicidal activity, SETVI; details: visually observed 20th to 23rd day after application
Outline: as §1

[11] = system: wheat (Triticum aestivum L.): TRZAX; assay: Test Example 1 pre-emergence herbicidal activity, TRZAX; details: visually observed 20th to 23rd day after application
Outline: as §1

[12] = system: japanese bulrush (Scirpus juncoides: SCPJO); assay: Test Example 3 water application herbicidal activity (paddy), SCPJO; details: 63 g a.i./ha, water application under submerged condition at 0.5 leaf stage, visually observed 14th day after application; 0 = untreated control, 100 = complete kill
Excerpt: (§4) Paddy field soil was put into a 1/1,000,000 ha pot and seeds of barnyardgrass (Echinochiloa oryzicola: ECHOR) and japanese bulrush (Scirpus juncoides: SCPJO) were sown and slightly covered with soil. Then the pot was left to stand still in a greenhouse in a state where the depth of flooding water was from 0.5 to 1 cm, and one day later, tubers of japanese ribbon wapato (Sagittaria pygmaea: SA GPY) were planted. Thereafter, the depth of flooding water was maintained at a level of from 3 to 4 cm, and when barnyardgrass and japanese bulrush reached a 0.5 leaf stage, an aqueous diluted solution of a wettable powder or emulsifiable concentrate having the compound of the present invention formulated in accordance with a usual formulation method, was uniformly applied under submerged condition by a pipette so that the dose of the active ingredient would be at a predetermined level. On the other hand, paddy filed soil was put into a 1/1,000,000 ha pot and puddled and leveled, and the depth of flooding water was from 3 to 4 cm. One day later, rice (Oryza sativa L.: ORYSA) of 2 leaf stage was transplanted in a depth of 3 cm. On the 4th day after the transplantation, the compound of the present invention was applied in the same manner as described above. On the 14th day after the application of the herbicide, the growth of barnyardgrass, japanese burlush and japanese ribbon wapato was visually observed and on the 21st day after the application of the herbicide, the growth of rice was visually observed, and the herbicidal effects were evaluated by growth controlling degrees (%) ranging from 0 (equivalent to the untreated control) to 100 (complete kill), whereby the results shown in Table 6, were obtained. Compound Nos. in Table 6 correspond to Compound Nos. in Table 1 and 2 given hereinbefore.

[13] = system: barnyardgrass (Echinochloa crus-galli L.), ECHCG; assay: Test Example 2 post-emergence (foliage treatment) herbicidal activity, ECHCG; details: 63 g a.i./ha
Outline: as §3

[14] = system: rice (Oryza sativa L.: ORYSA); assay: Test Example 3 water application herbicidal activity (paddy), transplanted rice ORYSA; details: 63 g a.i./ha, water application 4th day after transplantation of 2 leaf stage rice, visually observed 21st day after application; 0 = untreated control, 100 = complete kill
Excerpt: as §4

[15] = system: japanese ribbon wapato (Sagittaria pygmaea: SA GPY); assay: Test Example 3 water application herbicidal activity (paddy), SAGPY; details: 63 g a.i./ha, water application under submerged condition, tubers planted, visually observed 14th day after application; 0 = untreated control, 100 = complete kill
Excerpt: as §4

[16] = system: wheat (Triticum aestivum L.), TRZAX; assay: Test Example 2 post-emergence (foliage treatment) herbicidal activity, TRZAX; details: 63 g a.i./ha
Outline: as §2

[17] = system: soybean (Glycine max Merr.), GLXMA; assay: Test Example 2 post-emergence (foliage treatment) herbicidal activity, GLXMA; details: 63 g a.i./ha
Outline: as §2

[18] = system: barnyardgrass (Echinochiloa oryzicola: ECHOR); assay: Test Example 3 water application herbicidal activity (paddy), ECHOR; details: 63 g a.i./ha, water application under submerged condition at 0.5 leaf stage, visually observed 14th day after application; 0 = untreated control, 100 = complete kill
Excerpt: as §4

[19] = system: green foxtail (Setaria viridis L.), SETVI; assay: Test Example 2 post-emergence (foliage treatment) herbicidal activity, SETVI; details: 63 g a.i./ha
Outline: as §2

[20] = system: redroot pigweed (Amaranthus retroflexus L.): AMARE; assay: Test Example 1 pre-emergence herbicidal activity, AMARE; details: visually observed 20th to 23rd day after application
Outline: as §1

[21] = system: corn (Zea mays L.), ZEAMX; assay: Test Example 2 post-emergence (foliage treatment) herbicidal activity, ZEAMX; details: 63 g a.i./ha
Outline: as §2

[22] = system: prickly sida (Sida spinosa L.), SIDSP; assay: Test Example 2 post-emergence (foliage treatment) herbicidal activity, SIDSP; details: 63 g a.i./ha
Outline: as §2

[23] = system: crabgrass (Digitaria sanguinalis L.), DIGSA; assay: Test Example 2 post-emergence (foliage treatment) herbicidal activity, DIGSA; details: 63 g a.i./ha
Outline: as §3

[24] = system: redroot pigweed (Amaranthus retroflexus L.), AMARE; assay: Test Example 2 post-emergence (foliage treatment) herbicidal activity, AMARE; details: 63 g a.i./ha
Outline: as §3

SMILES	Pre-emergence Herbicidal Activity ZEAMX (growth controlling degree) ([1]; Rate 63 g a.i./ha)	growth controlling degree, ABUTH [2]	Pre-emergence Herbicidal Activity ORYSA (growth controlling degree) ([3]; Rate 63 g a.i./ha)	Pre-emergence Herbicidal Activity SIDSP (growth controlling degree) ([4]; Rate 63 g a.i./ha)	Pre-emergence Herbicidal Activity GLXMA (growth controlling degree) ([5]; Rate 63 g a.i./ha)	Pre-emergence Herbicidal Activity DIGSP (growth controlling degree) ([6]; Rate 63 g a.i./ha)	growth controlling degree, ORYSA [7]	Pre-emergence Herbicidal Activity ECHCG (growth controlling degree) ([8]; Rate 63 g a.i./ha)	Pre-emergence Herbicidal Activity ABUTH (growth controlling degree) ([9]; Rate 63 g a.i./ha)	Pre-emergence Herbicidal Activity SETVI (growth controlling degree) ([10]; Rate 63 g a.i./ha)	growth controlling degrees (%) SCPJO [12]	growth controlling degree, ECHCO [13]	growth controlling degrees (%) ORYSA [14]	growth controlling degree, TRZAX [16]	growth controlling degree, GLXMA [17]	growth controlling degrees (%) ECHOR [18]	growth controlling degree, SETVI [19]	growth controlling degree, ZEAMX [21]	growth controlling degree, SIDSP [22]	growth controlling degree, DIGSP [23]	also measured
COCC(=O)Nc1c(OC)c(Cl)cc(F)c1-c1nn(C)c(OC(F)F)c1Cl [Compound 1-16]	40%	100%	40%	100%	10%	100%	80%	100%	100%	100%	98%	80%	70%	50%	95%	100%	100%	70%	100%	80%	Pre-emergence Herbicidal Activity TRZAX (growth controlling degree) ([11]; Rate 63 g a.i./ha): 10%; growth controlling degrees (%) SAGPY [15]: 100%; Pre-emergence Herbicidal Activity AMARE (growth controlling degree) ([20]; Rate 63 g a.i./ha): 100%
COc1c(Cl)cc(F)c(-c2nn(C)c(OC(F)F)c2Cl)c1N(C(=O)OCCCl)C(=O)OCCCl [Compound 1-52]		80%					40%				50%	50%	20%	10%	30%	100%	30%	10%	90%	30%	Pre-emergence Herbicidal Activity ZEAMX (growth controlling degree) ([1]; Rate 125 g a.i./ha): 0%; Pre-emergence Herbicidal Activity ORYSA (growth controlling degree) ([3]; Rate 125 g a.i./ha): 0%; Pre-emergence Herbicidal Activity SIDSP (growth controlling degree) ([4]; Rate 125 g a.i./ha): 0%; Pre-emergence Herbicidal Activity GLXMA (growth controlling degree) ([5]; Rate 125 g a.i./ha): 0%; Pre-emergence Herbicidal Activity DIGSP (growth controlling degree) ([6]; Rate 125 g a.i./ha): 30%; Pre-emergence Herbicidal Activity ECHCG (growth controlling degree) ([8]; Rate 125 g a.i./ha): 0%; Pre-emergence Herbicidal Activity ABUTH (growth controlling degree) ([9]; Rate 125 g a.i./ha): 0%; Pre-emergence Herbicidal Activity SETVI (growth controlling degree) ([10]; Rate 125 g a.i./ha): 50%; Pre-emergence Herbicidal Activity TRZAX (growth controlling degree) ([11]; Rate 125 g a.i./ha): 0%; growth controlling degrees (%) SAGPY [15]: 0%; Pre-emergence Herbicidal Activity AMARE (growth controlling degree) ([20]; Rate 125 g a.i./ha): 100%
COc1c(Cl)cc(F)c(-c2nn(C)c(OC(F)F)c2Cl)c1NC(=O)OCC(C)C [Compound 1-64]	0%	100%	10%	80%	0%	90%	30%	40%	60%	80%	70%	90%	40%	30%	50%	100%	100%	30%	100%	70%	growth controlling degree, AMARE [24]: 100%; Pre-emergence Herbicidal Activity TRZAX (growth controlling degree) ([11]; Rate 63 g a.i./ha): 10%; Pre-emergence Herbicidal Activity AMARE (growth controlling degree) ([20]; Rate 63 g a.i./ha): 100%
Cn1nc(-c2c(F)cc(Cl)c(OC(F)F)c2N(C=O)Cc2ccccc2)c(Cl)c1OC(F)F [Compound 1-86]		0%					0%				50%	0%	10%	0%	40%	60%	10%	0%	60%	30%	Pre-emergence Herbicidal Activity ZEAMX (growth controlling degree) ([1]; Rate 125 g a.i./ha): 0%; Pre-emergence Herbicidal Activity ORYSA (growth controlling degree) ([3]; Rate 125 g a.i./ha): 0%; Pre-emergence Herbicidal Activity SIDSP (growth controlling degree) ([4]; Rate 125 g a.i./ha): 0%; Pre-emergence Herbicidal Activity GLXMA (growth controlling degree) ([5]; Rate 125 g a.i./ha): 0%; Pre-emergence Herbicidal Activity DIGSP (growth controlling degree) ([6]; Rate 125 g a.i./ha): 0%; growth controlling degree, AMARE [24]: 100%; Pre-emergence Herbicidal Activity ECHCG (growth controlling degree) ([8]; Rate 125 g a.i./ha): 0%; Pre-emergence Herbicidal Activity ABUTH (growth controlling degree) ([9]; Rate 125 g a.i./ha): 0%; Pre-emergence Herbicidal Activity SETVI (growth controlling degree) ([10]; Rate 125 g a.i./ha): 0%; Pre-emergence Herbicidal Activity TRZAX (growth controlling degree) ([11]; Rate 125 g a.i./ha): 0%; Pre-emergence Herbicidal Activity AMARE (growth controlling degree) ([20]; Rate 125 g a.i./ha): 30%
